In ChEMBL document CHEMBL2417447, “Synthesis and binary QSAR study of antitubercular quinolylhydrazides” (2013):

Experiments:
[1] = system: Mycobacterium tuberculosis; experiment: Antimycobacterial activity against Mycobacterium tuberculosis H37Rv ATCC 27294 assessed as growth inhibition at 6.25 ug/ml after 5 to 8 days by microplate alamar blue assay relative to control; assay type: functional; settings: read-out: GI
[2] = system: Mycobacterium tuberculosis; experiment: Antitubercular activity against Mycobacterium tuberculosis H37Rv ATCC 27294 after 5 to 8 days by microplate alamar blue assay; assay type: functional

SMILES	inhibition of growth at 6.25 µg/mL [1] [%]	MIC [2] [µg/mL]
O=C1Nc2c(cccc2[N+](=O)[O-])C(=O)/C1=N/Nc1cccc(Cl)c1	82	< 6.25
O=C1Nc2c(cccc2[N+](=O)[O-])C(=O)/C1=N/Nc1ccccc1[N+](=O)[O-]	80	< 6.25
O=C1Nc2c(cccc2[N+](=O)[O-])C(=O)/C1=N/Nc1ccc(Cl)c(Cl)c1	79	< 6.25
O=C1Nc2cc([N+](=O)[O-])ccc2C(=O)/C1=N/Nc1ccc(Cl)c(F)c1	70	< 6.25
O=C1Nc2ccc(Cl)cc2C(=O)/C1=N/Nc1ccccc1[N+](=O)[O-]	64	< 6.25
O=C1Nc2c(cccc2[N+](=O)[O-])C(=O)/C1=N/Nc1cccc([N+](=O)[O-])c1	60	< 6.25
Cc1cccc(C)c1N/N=C1\C(=O)Nc2ccc(Cl)cc2C1=O	13	> 6.25
COc1ccc(N/N=C2\C(=O)Nc3ccc(Cl)cc3C2=O)c(C)c1	12	> 6.25
Cc1ccc(N/N=C2\C(=O)Nc3c(Cl)ccc(Cl)c3C2=O)cc1	11	> 6.25
CN1C(=O)/C(=N\Nc2ccc(Cl)c(Cl)c2)C(=O)c2ccccc21	10	> 6.25
O=C1Nc2c(Cl)cccc2C(=O)/C1=N/Nc1ccccc1Cl	7	> 6.25
CC(=O)c1ccc(N/N=C2\C(=O)Nc3cc(Cl)ccc3C2=O)cc1	6	> 6.25
COc1ccc(N/N=C2\C(=O)Nc3cc(Cl)ccc3C2=O)cc1	4	> 6.25
O=C1Nc2cc(Cl)ccc2C(=O)/C1=N/Nc1ccc([N+](=O)[O-])cc1	1	> 6.25
COc1ccc2c(c1)C(=O)/C(=N/Nc1ccccc1)C(=O)N2	0	> 6.25
O=C1Nc2c(Cl)ccc(Cl)c2C(=O)/C1=N/Nc1cccc(Cl)c1	32	> 6.25
COc1ccccc1N/N=C1\C(=O)Nc2c(cccc2[N+](=O)[O-])C1=O	32	> 6.25
Cc1cccc(N/N=C2\C(=O)Nc3c(C)cccc3C2=O)c1	31	> 6.25
Cc1ccc2c(c1)NC(=O)/C(=N\Nc1ccccc1Cl)C2=O	31	> 6.25

SMILES	inhibition of growth at 6.25 µg/mL [1] [%]	MIC [2] [µg/mL]
CC(=O)c1ccc(N/N=C2\C(=O)Nc3ccc(Cl)cc3C2=O)cc1	29	> 6.25
O=C1Nc2c(ccc(Cl)c2Cl)C(=O)/C1=N/Nc1cccc([N+](=O)[O-])c1	27	> 6.25
CC(=O)c1ccc(N/N=C2\C(=O)Nc3c(Cl)cccc3C2=O)cc1	24	> 6.25
O=C1Nc2c(Cl)cccc2C(=O)/C1=N/Nc1cccc([N+](=O)[O-])c1	24	> 6.25
Cc1cccc(C)c1N/N=C1\C(=O)Nc2c(cccc2[N+](=O)[O-])C1=O	22	> 6.25
O=C1Nc2c(Cl)cccc2C(=O)/C1=N/Nc1ccc(Cl)c(Cl)c1	21	> 6.25
O=C1Nc2cc([N+](=O)[O-])ccc2C(=O)/C1=N/Nc1cccc(Cl)c1Cl	21	> 6.25
CN1C(=O)/C(=N\Nc2ccc([N+](=O)[O-])cc2)C(=O)c2ccccc21	20	> 6.25
CC(=O)c1ccc(N/N=C2/C(=O)c3ccccc3N(C)C2=O)cc1	20	> 6.25
Cc1cccc(N/N=C2\C(=O)Nc3cc([N+](=O)[O-])ccc3C2=O)c1	19	> 6.25
COc1ccc(N/N=C2\C(=O)Nc3c(ccc(Cl)c3Cl)C2=O)cc1	14	> 6.25
Cc1ccc(N/N=C2\C(=O)Nc3c(ccc(Cl)c3Cl)C2=O)cc1	54	< 6.25
O=C1Nc2cc(Cl)ccc2C(=O)/C1=N/Nc1ccc(F)cc1	50	< 6.25
Cc1cccc(N/N=C2\C(=O)Nc3c(cccc3[N+](=O)[O-])C2=O)c1C	48	> 6.25
O=C1Nc2cc(Cl)ccc2C(=O)/C1=N/Nc1cccc(Cl)c1	47	> 6.25
O=C1Nc2c(cccc2[N+](=O)[O-])C(=O)/C1=N/Nc1ccc(F)cc1	46	> 6.25
COc1ccc(N/N=C2\C(=O)Nc3c(cccc3[N+](=O)[O-])C2=O)c(C)c1	45	> 6.25
Cc1cccc(N/N=C2\C(=O)Nc3ccccc3C2=O)c1	42	> 6.25
O=C1Nc2ccccc2C(=O)/C1=N/Nc1cccc(Cl)c1	41	> 6.25

SMILES	inhibition of growth at 6.25 µg/mL [1] [%]	MIC [2] [µg/mL]
COc1ccc(N/N=C2\C(=O)Nc3c(Cl)ccc(Cl)c3C2=O)c(C)c1	40	> 6.25
COc1ccc(N/N=C2\C(=O)c3cccc([N+](=O)[O-])c3N(C)C2=O)c(C)c1	40	> 6.25
Cc1cccc2c1NC(=O)/C(=N\Nc1cccc(Cl)c1)C2=O	39	> 6.25
CN1C(=O)/C(=N\Nc2ccc(Cl)cc2)C(=O)c2ccccc21	38	> 6.25
COc1ccc(N/N=C2\C(=O)Nc3c(cccc3[N+](=O)[O-])C2=O)cc1	37	> 6.25
COc1ccc(N/N=C2\C(=O)Nc3c(Cl)ccc(Cl)c3C2=O)cc1	36	> 6.25
O=C1Nc2c(cccc2[N+](=O)[O-])C(=O)/C1=N/Nc1ccccc1-c1ccccc1	35	> 6.25
Cc1ccc(N/N=C2\C(=O)Nc3c(Cl)cccc3C2=O)cc1	34	> 6.25
O=C1Nc2c(ccc(Cl)c2Cl)C(=O)/C1=N/Nc1cccc(F)c1	80	< 6.25
O=C1Nc2c(Cl)ccc(Cl)c2C(=O)/C1=N/Nc1ccc(F)cc1	80	< 6.25
O=C1Nc2cc(Cl)ccc2C(=O)/C1=N/Nc1ccccc1	76	< 6.25
Cc1cccc(N/N=C2\C(=O)Nc3cc(C)ccc3C2=O)c1	76	< 6.25
O=C1Nc2ccc(Cl)cc2C(=O)/C1=N/Nc1ccc(F)cc1	71	< 6.25
O=C1Nc2c(cccc2[N+](=O)[O-])C(=O)/C1=N/Nc1ccc([N+](=O)[O-])cc1	65	< 6.25
Cc1cccc(N/N=C2\C(=O)Nc3c(ccc(Cl)c3Cl)C2=O)c1	62	< 6.25
Cc1c(Cl)cccc1N/N=C1\C(=O)Nc2c(cccc2[N+](=O)[O-])C1=O	56	< 6.25
COc1ccc(N/N=C2\C(=O)Nc3ccc(Cl)cc3C2=O)cc1	55	< 6.25
O=C1Nc2c(ccc(Cl)c2Cl)C(=O)/C1=N/Nc1cccc(Cl)c1	82	< 6.25
